# In PubChem BioAssay (NCI):
#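 Briefly, cells in 96-well plates were exposed to five compound concentrations for 48 h, and endpoints were estimated by linear interpolation. Abbreviation: GI50, concentration required for 50% inhibition of growth. TGI is the concentration that stops growth completely.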
# Key:
# Test in all cases: NCI anticancer screen, dose series, 48 h
# NCI/ADR-RES ovarian = test system: NCI/ADR-RES ovarian
# MDA-MB-231 breast = test system: MDA-MB-231 breast
# DU-145 prostate = test system: DU-145 prostate
# MALME-3M melanoma = test system: MALME-3M melanoma
# HOP-92 NSCLC = test system: HOP-92 NSCLC
# CCRF-CEM leukemia = test system: CCRF-CEM leukemia
# NCI-H226 lung = test system: NCI-H226 lung
# NCI-H23 lung = test system: NCI-H23 lung
# UACC-257 melanoma = test system: UACC-257 melanoma
# COLO 205 colon = test system: COLO 205 colon
# SW-620 colon = test system: SW-620 colon
# PC-3 prostate = test system: PC-3 prostate
# RPMI-8226 leukemia = test system: RPMI-8226 leukemia
# OVCAR-5 ovarian = test system: OVCAR-5 ovarian
# M14 melanoma = test system: M14 melanoma
# BT-549 breast = test system: BT-549 breast
# A549 NSCLC = test system: A549 NSCLC
# ACHN renal = test system: ACHN renal
# KM12 colon = test system: KM12 colon
# CAKI-1 renal = test system: CAKI-1 renal
# SK-MEL-5 melanoma = test system: SK-MEL-5 melanoma
# U251 CNS = test system: U251 CNS
# SK-MEL-2 melanoma = test system: SK-MEL-2 melanoma
# EKVX NSCLC = test system: EKVX NSCLC
# OVCAR-4 ovarian = test system: OVCAR-4 ovarian
# OVCAR-8 ovarian = test system: OVCAR-8 ovarian
# RXF 393 renal = test system: RXF 393 renal
# HCT-15 colon = test system: HCT-15 colon
# HOP-62 NSCLC = test system: HOP-62 NSCLC
# NCI-H460 lung = test system: NCI-H460 lung
# HCC-2998 colon = test system: HCC-2998 colon
# SF-539 CNS = test system: SF-539 CNS
# MDA-MB-435 = test system: MDA-MB-435
# A498 renal = test system: A498 renal
# HCT-116 colon = test system: HCT-116 colon
# OVCAR-3 ovarian = test system: OVCAR-3 ovarian
# LOX IMVI melanoma = test system: LOX IMVI melanoma
# TK-10 renal = test system: TK-10 renal
# SF-295 CNS = test system: SF-295 CNS
# T-47D breast = test system: T-47D breast
# UO-31 renal = test system: UO-31 renal
# SK-OV-3 ovarian = test system: SK-OV-3 ovarian
# SF-268 CNS = test system: SF-268 CNS
# SK-MEL-28 melanoma = test system: SK-MEL-28 melanoma
# SNB-19 CNS = test system: SNB-19 CNS
# MCF7 breast = test system: MCF7 breast
# SNB-75 CNS = test system: SNB-75 CNS
# 786-0 renal = test system: 786-0 renal
# UACC-62 melanoma = test system: UACC-62 melanoma
# IGROV1 ovarian = test system: IGROV1 ovarian
# NCI-H522 lung = test system: NCI-H522 lung
# HS 578T breast = test system: HS 578T breast
# SN12C renal = test system: SN12C renal
# HT29 colon = test system: HT29 colon
smiles,measurement,setting,value
Cc1ccc(C(C2C(=O)N(C)C(=O)N(C)C2=O)C(F)(F)C(=O)N(C)C)cc1 (stereo not drawn),TGI,NCI/ADR-RES ovarian,> 100 µM
same,TGI,MDA-MB-231 breast,> 100 µM
same,TGI,DU-145 prostate,> 100 µM
same,TGI,MALME-3M melanoma,> 100 µM
same,TGI,HOP-92 NSCLC,> 100 µM
same,TGI,CCRF-CEM leukemia,> 100 µM
same,TGI,NCI-H226 lung,> 100 µM
same,TGI,NCI-H23 lung,> 100 µM
same,TGI,UACC-257 melanoma,> 100 µM
same,TGI,COLO 205 colon,> 100 µM
same,TGI,SW-620 colon,> 100 µM
same,TGI,PC-3 prostate,> 100 µM
same,TGI,RPMI-8226 leukemia,> 100 µM
same,TGI,OVCAR-5 ovarian,> 100 µM
same,TGI,M14 melanoma,> 100 µM
same,TGI,BT-549 breast,> 100 µM
same,TGI,A549 NSCLC,> 100 µM
same,TGI,ACHN renal,> 100 µM
same,TGI,KM12 colon,> 100 µM
same,TGI,CAKI-1 renal,> 100 µM
same,TGI,SK-MEL-5 melanoma,> 100 µM
same,TGI,U251 CNS,> 100 µM
same,TGI,SK-MEL-2 melanoma,> 100 µM
same,TGI,EKVX NSCLC,> 100 µM
same,TGI,OVCAR-4 ovarian,> 100 µM
same,TGI,OVCAR-8 ovarian,> 100 µM
same,TGI,RXF 393 renal,> 100 µM
same,TGI,HCT-15 colon,> 100 µM
same,TGI,HOP-62 NSCLC,> 100 µM
same,TGI,NCI-H460 lung,> 100 µM
same,TGI,HCC-2998 colon,> 100 µM
same,TGI,SF-539 CNS,> 100 µM
same,TGI,MDA-MB-435,> 100 µM
same,TGI,A498 renal,> 100 µM
same,TGI,HCT-116 colon,> 100 µM
same,TGI,OVCAR-3 ovarian,> 100 µM
same,TGI,LOX IMVI melanoma,> 100 µM
same,TGI,TK-10 renal,> 100 µM
same,TGI,SF-295 CNS,> 100 µM
same,TGI,T-47D breast,> 100 µM
same,TGI,UO-31 renal,> 100 µM
same,TGI,SK-OV-3 ovarian,> 100 µM
same,TGI,SF-268 CNS,> 100 µM
same,TGI,SK-MEL-28 melanoma,> 100 µM
same,TGI,SNB-19 CNS,> 100 µM
same,TGI,MCF7 breast,> 100 µM
same,TGI,SNB-75 CNS,> 100 µM
same,TGI,786-0 renal,> 100 µM
same,TGI,UACC-62 melanoma,> 100 µM
O=Nc1ccc2ccccc2c1O,GI50,IGROV1 ovarian,2.07 µM
same,TGI,IGROV1 ovarian,5.91 µM
same,GI50,NCI/ADR-RES ovarian,2.62 µM
same,TGI,NCI/ADR-RES ovarian,8.22 µM
same,GI50,MDA-MB-231 breast,10 µM
same,TGI,MDA-MB-231 breast,25.1 µM
same,GI50,DU-145 prostate,10.4 µM
same,TGI,DU-145 prostate,22.7 µM
same,GI50,MALME-3M melanoma,3.39 µM
same,TGI,MALME-3M melanoma,8.51 µM
same,GI50,HOP-92 NSCLC,13.4 µM
same,TGI,HOP-92 NSCLC,27.3 µM
same,GI50,NCI-H226 lung,12.4 µM
same,TGI,NCI-H226 lung,29.1 µM
same,GI50,NCI-H23 lung,3.18 µM
same,TGI,NCI-H23 lung,16.1 µM
same,GI50,UACC-257 melanoma,2.13 µM
same,TGI,UACC-257 melanoma,4.19 µM
same,GI50,COLO 205 colon,4.79 µM
same,TGI,COLO 205 colon,16.6 µM
same,GI50,SW-620 colon,2.88 µM
same,TGI,SW-620 colon,10.5 µM
same,GI50,PC-3 prostate,2.61 µM
same,TGI,PC-3 prostate,11.9 µM
same,GI50,RPMI-8226 leukemia,5.69 µM
same,TGI,RPMI-8226 leukemia,31.1 µM
same,GI50,NCI-H522 lung,1.78 µM
same,TGI,NCI-H522 lung,4.17 µM
same,GI50,OVCAR-5 ovarian,14.1 µM
same,TGI,OVCAR-5 ovarian,30.4 µM
same,GI50,M14 melanoma,5.07 µM
same,TGI,M14 melanoma,16.5 µM
same,GI50,BT-549 breast,17.7 µM
same,TGI,BT-549 breast,31.6 µM
same,GI50,A549 NSCLC,6.2 µM
same,TGI,A549 NSCLC,19.6 µM
same,GI50,ACHN renal,5.5 µM
same,TGI,ACHN renal,18.4 µM
same,GI50,KM12 colon,6.23 µM
same,TGI,KM12 colon,19.2 µM
same,GI50,CAKI-1 renal,3.14 µM
same,TGI,CAKI-1 renal,19.3 µM
same,GI50,HS 578T breast,1.56 µM
same,TGI,HS 578T breast,5.07 µM
same,GI50,SK-MEL-5 melanoma,2.71 µM
same,TGI,SK-MEL-5 melanoma,8.41 µM
same,GI50,U251 CNS,3.11 µM
same,TGI,U251 CNS,9.46 µM
same,GI50,SK-MEL-2 melanoma,2.34 µM
same,TGI,SK-MEL-2 melanoma,5.29 µM
same,GI50,EKVX NSCLC,8.61 µM
same,TGI,EKVX NSCLC,22.6 µM
same,GI50,OVCAR-4 ovarian,1.89 µM
same,TGI,OVCAR-4 ovarian,5.32 µM
same,GI50,OVCAR-8 ovarian,2.67 µM
same,TGI,OVCAR-8 ovarian,6.63 µM
same,GI50,RXF 393 renal,14 µM
same,TGI,RXF 393 renal,27.3 µM
same,GI50,HCT-15 colon,10.2 µM
same,TGI,HCT-15 colon,30.8 µM
same,GI50,NCI-H460 lung,15.5 µM
same,TGI,NCI-H460 lung,36.6 µM
same,GI50,HCC-2998 colon,14.7 µM
same,TGI,HCC-2998 colon,29.1 µM
same,GI50,SF-539 CNS,20.8 µM
same,TGI,SF-539 CNS,37.2 µM
same,GI50,MDA-MB-435,2.31 µM
same,TGI,MDA-MB-435,4.53 µM
same,GI50,A498 renal,14.3 µM
same,TGI,A498 renal,28.2 µM
same,GI50,SN12C renal,1.9 µM
same,TGI,SN12C renal,5.26 µM
same,GI50,HCT-116 colon,2.6 µM
same,TGI,HCT-116 colon,7.36 µM
same,GI50,OVCAR-3 ovarian,1.9 µM
same,TGI,OVCAR-3 ovarian,5.01 µM
same,GI50,LOX IMVI melanoma,1.68 µM
same,TGI,LOX IMVI melanoma,5.71 µM
same,GI50,HT29 colon,3.46 µM
same,TGI,HT29 colon,13.4 µM
same,GI50,TK-10 renal,11.8 µM
same,TGI,TK-10 renal,24.5 µM
same,GI50,SF-295 CNS,7.78 µM
same,TGI,SF-295 CNS,25.4 µM
same,GI50,T-47D breast,2.75 µM
same,TGI,T-47D breast,6.08 µM
same,GI50,UO-31 renal,4.99 µM
same,TGI,UO-31 renal,21.7 µM
same,GI50,SK-OV-3 ovarian,19.9 µM
same,TGI,SK-OV-3 ovarian,45.5 µM
same,GI50,SF-268 CNS,3.97 µM
same,TGI,SF-268 CNS,13.3 µM
same,GI50,SK-MEL-28 melanoma,9.08 µM
same,TGI,SK-MEL-28 melanoma,22.2 µM
same,GI50,SNB-19 CNS,15 µM
same,TGI,SNB-19 CNS,28.4 µM
same,GI50,MCF7 breast,3.17 µM
same,TGI,MCF7 breast,12.5 µM
same,GI50,SNB-75 CNS,2.61 µM
same,TGI,SNB-75 CNS,15.7 µM
same,GI50,786-0 renal,18.4 µM
same,TGI,786-0 renal,32.8 µM
same,GI50,UACC-62 melanoma,2.23 µM
same,TGI,UACC-62 melanoma,5.89 µM
